Square brackets hold non-standard residues; d marks the D form. Ends that are not written are not given here. pS = N[C@@H](COP(=O)(O)O)C(=O)O
What was measured:
PKC-theta = biological target: T1, PKC-theta (Homo sapiens, UniProt Q04759); assay: In vitro kinase assay: peptide phosphorylation by PKC-theta; type: biochemical; details: Table 8
T1 construct: His-tag; made in house; host or cells: baculovirus-infected Sf9 cells
Source text: A second strategy for validation of the PSSM derived from the methods described herein is to identify sequences represented in the human proteome that have low percentiles derived from the PSSM, to synthesize peptides that have those sequences, and test the efficiency of phosphorylation of those peptides by the kinase of interest. […] The results are shown for individual peptides (FIG. 11, panel A) or for groups of peptides aggregated by percentile prediction (FIG. 11, panel B). As with the testing described above with prospectively chosen peptides, the percentile scores are highly predictive of phosphorylation by the relevant kinase.
An example of the purification procedure used for production of active kinase is as follows. A preparation of PKC-theta was prepared using a Gateway expression construct containing PKC-theta that was expressed in baculovirus, which were used to infect Sf9 cells. The cell pellet from a liter of baculovirus-infected Sf9 cells was resuspended in 20 volumes (60 ml) of extraction buffer (20 mM Na phosphate buffer pH 7.5, 500 mM NaCl, 5 mM pyrophosphate, 10% glycerol, 10 mM imidazole, 1 mM PMSF), sonicated twice for one minute (1 cm tip at 60% power and 50% duty cycle) and cell disruption was verified microscopically. The sample was adjusted to five mM MgCl2 and treated with one U benzonase/ml for an additional 20 minute on ice. The sample was clarified by centrifugation in a JA-20 rotor at 15K for 30 min at 4° C., filtered through a […] filter and applied at 0.5 ml/min to a one ml chelating sepharose column previously charged with nickel and equilibrated with extraction buffer. The column was washed with extraction buffer at one ml/min to baseline and eluted in a 20 ml gradient (20-500 mM imidazole in extraction buffer) into one ml fractions that were analyzed by SDS-PAGE. Fractions with the highest concentration of protein were pooled, were dialyzed twice against one liter of 20 mM Na PO4 pH 7.5, 50 mM NaCl buffer. The kinase pool was dialyzed twice against 20 mM HEPES pH 7.4, 100 mM NaCl, 2 mM EDTA, 5 mM DTT, 0.05% Triton-X-100. After dialysis, the sample was adjusted to 50% glycerol and quick-frozen in a dry ice/ethanol bath.
(§1) The conditions of the kinase assay and the amount of active kinase used varied with the kinase and with the accuracy needed. For a typical experiment, 5-20 ng of kinase was used per well and each peptide pool was assayed in duplicate wells. Note that the absolute amount of kinase used was not usually a critical parameter, because the desired information related to specificity of the kinase not its absolute activity, and robustness of the assay depends on comparisons of the same amount of kinase on different peptides. The combination of kinase concentration and assay duration was modified to assure that the stoichiometry of peptide phosphorylation never exceeded 5%. The choice of kinase buffer depended on the kinase being analyzed. For studies of PKC, 100 mM HEPES, 0.05% Triton-X100, 1 mM CaCl2, 20 mM MgCl2, 0.2 mg/ml phosphatidyl serine (Avanti Polar Lipids), PMA 100 ng/ml was typically used. The lipid stock was prepared by transferring 3 mg phosphatidyl serine into iced mixture of 450 μl water plus 50 μl of 10% Triton-X100, sonicating 10 times on ice for 1 sec each.
The kinase reaction mixture was assembled by sequential addition to a tube held on ice of: 5 μl peptide (100 μM for final concentration of 10 μM), 15 μl of kinase (typically 5 ng/well, in appropriate kinase buffer), 30 μl of ATP (1 uCi/well of ^32P-gamma ATP in a stock of 167 μM cold ATP in the kinase buffer; for final concentration for 100 μM ATP). The mixture was rapidly warmed to desired reaction temperature (30° C. for PKC) and incubated for the desired duration (usually 10 minutes). The kinase assay was terminated by transfer to 4° C. water batch, and rapid addition of an equal volume (50 μl) of stop solution [0.1M ATP+0.1M EDTA in water, pH 8]. […]

pPKC Ab = pPKC Ab binding to peptides phosphorylated in vitro by PKC-theta; details: for pPKC Ab binding to peptide: before/after phosphorylation by PKC-theta
Protocol: Synthetic peptides chosen from those shown in Table 4 were subjected to phosphorylation by PKC-theta, Assay conditions were similar to those described herein, except that the phosphorylation reaction was for 30 minutes at 30° C. and then overnight at 4° C. The reaction mixture was applied to HB avidin-coated plates, the plates washed, and then pPKC Ab binding assayed.

PKC-delta = biological target: T2, PKC-delta (Homo sapiens, UniProt Q05655); assay: In vitro kinase assay: peptide phosphorylation by PKC-delta; type: biochemical; details: peptide concentration of 10 nM; percentage of phosphorylation of the best validating peptide substrate
T2 construct: purchased Calbiochem
T2 sequence (Q05655 whole entry): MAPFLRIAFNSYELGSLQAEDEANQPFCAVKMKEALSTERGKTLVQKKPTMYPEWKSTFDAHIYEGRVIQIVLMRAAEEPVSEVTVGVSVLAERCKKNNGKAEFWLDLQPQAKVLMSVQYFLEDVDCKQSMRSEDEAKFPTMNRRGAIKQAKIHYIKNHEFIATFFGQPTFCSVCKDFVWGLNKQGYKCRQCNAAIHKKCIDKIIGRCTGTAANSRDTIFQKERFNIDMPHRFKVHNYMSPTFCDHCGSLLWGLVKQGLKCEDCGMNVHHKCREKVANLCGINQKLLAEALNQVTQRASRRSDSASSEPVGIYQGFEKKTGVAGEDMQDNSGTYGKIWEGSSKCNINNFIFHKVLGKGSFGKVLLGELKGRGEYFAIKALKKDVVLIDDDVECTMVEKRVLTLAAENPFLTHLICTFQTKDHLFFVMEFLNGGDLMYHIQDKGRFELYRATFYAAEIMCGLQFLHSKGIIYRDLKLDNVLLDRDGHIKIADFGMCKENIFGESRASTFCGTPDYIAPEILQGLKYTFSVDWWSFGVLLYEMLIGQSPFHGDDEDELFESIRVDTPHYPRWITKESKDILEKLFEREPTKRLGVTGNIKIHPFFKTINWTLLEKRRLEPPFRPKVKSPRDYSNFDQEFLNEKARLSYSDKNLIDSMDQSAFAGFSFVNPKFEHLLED
Source text: One approach to validating a substrate identification method can involve, for example, comparison of substrate sites predicted by the method with in vitro phosphorylation results obtained using the selected kinase and peptides of known sequences. Such a systematic validation has been performed for the methods described herein. For example, a panel of seventy five peptides was synthesized, the phosphorylation observed for each peptide was experimentally measured, the amount of phosphorylation was quantified, the phosphorylation results for each peptide were normalized to the phosphorylation observed with the best substrate tested and these amounts were compared with predictions made according to the invention and according to the procedures provided by others. These peptides are referred to herein as proteomic peptides because their sequences are chosen from proteins in the human proteome; unlike the test sets employed herein, these peptides include no degenerate positions
Table 2 compares the present predictions with actual measurements of phosphorylation on validating peptides. The method of synthesis of the validating peptides was as described elsewhere in the application, and each included an N-terminal linker sequence of biotinylated-Lys-dansylated-Lys-Pro-Pro-Gly (SEQ ID NO:231). The length of the remaining “core” of the validating peptides ranged from 12-21 residues with one to five S/T residues. In vitro phosphorylation of these validating peptides was measured in the manner described herein. […] In vitro phosphorylation results for the validating peptides were expressed as normalized values, namely as a percentage of phosphorylation of the best validating peptide substrate in the group.
as §1
The kinase reaction mixture was assembled by sequential addition to a tube held on ice of: 5 μl peptide (100 μM for final concentration of 10 μM), 15 μl of kinase (typically 5 ng/well, in appropriate kinase buffer), 30 μl of ATP (1 uCi/well of ^32P-gamma ATP in a stock of 167 μM cold ATP in the kinase buffer; for final concentration for 100 μM ATP). The mixture was rapidly warmed to desired reaction temperature (30° C. for PKC) and incubated for the desired duration (usually 10 minutes). The kinase assay was terminated by transfer to 4° C. water batch, and rapid addition of an equal volume (50 μl) of stop solution [0.1M ATP+0.1M EDTA in water, pH 8].
The peptides were then captured from the reaction mixture by transfer to a Reacti-Bind Streptavidin High Binding Capacity Coated Plates (HBC) (Pierce Biotechnology) as follows. The HBC plates were pre-rinsed three times with PBS/Tween PBS/Tween20 0.05% (PBS/Tween). […]

pPKC antibody [1] = details: cited from earlier work
pPKC antibody [2] = assay: ELISA binding of pPKC antibody to synthesized SHP-1 phosphopeptides; details: for Binding of pPKC antibody: ELISA on phosphopeptide, normalized to the value for the Ser-591 peptide; for binding of pPKC antibody to phosphorylated peptide: ELISA
Protocol: Tests were conducted to test whether SHP-1 is phosphorylated in vivo at Ser-591, Ser-26 or Ser-300. To do so, a strategy was employed that used a commercially available antibody from Cell Signaling Technology that is referred to as a phospho-PKC motif antibody (designated herein as pPKC Ab). (See U.S. Pat. No. 6,441,140 and Cell Signaling Technology Datasheet for ‘Phospho-(Ser) PKC Substrate Antibody’). […] Such antibodies can be used for detection of unknown proteins that contain phosphorylation sites conforming to the motif to which they bind. For example, phosphorylated proteins can be detected on two-dimensional gels with the pPKC Ab and the identity of these phosphorylated proteins can be confirmed by the observed molecular weight, isoelectric point and other information such as the predictive algorithms provided herein. Similarly, such detected proteins can be enriched by classical biochemical separations, and when sufficiently enriched, can be identified by mass spectrometry (Astoul E et al. 2003. J Biol Chem 278:9267-9275).
Because these studies of SHP-1 were an early precedent-setting study, a rigorous approach was adopted in determining whether pPKC antibody binding included one or more of the three predicted SHP-1 sites. Phosphorylated peptides corresponding to the three best predicted PKC sites were synthesized (Table 7) in microtiter wells using a method of prior art described in U.S. Pat. No. 6,031,074. In addition, phosphorylated peptides corresponding to others sites in SHP-1 that match part of the motif detected by the pPKC antibody were also synthesized. Those phosphorylated peptides were then analyzed for reactivity with the pPKC antibody in an ELISA assay.
Among the phosphorylated peptides corresponding to sites in SHP-1, the best binding of pPKC antibody was detected with the phosphorylated peptide corresponding to Ser-591 (Table 7; […]).

T1 sequence (Q04759 whole entry): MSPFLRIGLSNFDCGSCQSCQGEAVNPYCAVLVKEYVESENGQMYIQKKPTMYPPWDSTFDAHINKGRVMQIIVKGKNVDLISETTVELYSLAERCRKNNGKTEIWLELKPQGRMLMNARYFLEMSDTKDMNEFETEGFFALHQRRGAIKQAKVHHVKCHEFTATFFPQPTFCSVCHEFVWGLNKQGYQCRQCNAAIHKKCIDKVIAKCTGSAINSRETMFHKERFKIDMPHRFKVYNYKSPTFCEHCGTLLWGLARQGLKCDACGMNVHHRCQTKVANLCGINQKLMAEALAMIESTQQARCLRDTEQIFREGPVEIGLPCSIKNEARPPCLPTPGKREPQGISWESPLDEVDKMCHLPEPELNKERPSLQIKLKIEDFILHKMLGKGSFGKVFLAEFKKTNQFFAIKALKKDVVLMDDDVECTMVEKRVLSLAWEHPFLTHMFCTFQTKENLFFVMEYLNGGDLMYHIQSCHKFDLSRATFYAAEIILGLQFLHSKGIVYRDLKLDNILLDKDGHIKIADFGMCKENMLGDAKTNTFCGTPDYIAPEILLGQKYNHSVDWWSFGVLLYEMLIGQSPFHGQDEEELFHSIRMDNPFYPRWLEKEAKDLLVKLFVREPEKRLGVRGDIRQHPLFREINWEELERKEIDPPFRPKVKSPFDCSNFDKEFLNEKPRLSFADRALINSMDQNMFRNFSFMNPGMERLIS

Substance	Binding of pPKC antibody (pPKC antibody [2])	other results
75 (EEAEHKATKARLADK) [compound 75]		Peptide phosphorylation by PKC-theta (PKC-theta): 0; pPKC Ab Signal on peptide without exposure to PKC-theta (pPKC Ab): 0.02; pPKC Ab Signal on peptide after exposure to PKC-theta phosphorylation (pPKC Ab; 30 minutes at 30° C. then overnight at 4° C.): 0.02; pPKC Ab Signal amount dependent on PKC phosphorylation (pPKC Ab; difference after minus without exposure): 0.00; Measured in vitro phosphorylation by PKC-delta (PKC-delta): 0%
229 (WKN[pS]IRH) [compound 229]		binding of pPKC antibody (manufacturer Cell Signaling Technology) (pPKC antibody [1]): binds
230 (RRP[pS]YRK) [compound 230]		binding of pPKC antibody (manufacturer Cell Signaling Technology) (pPKC antibody [1]): binds
289 (MKNAHAKA[pS]RTSSKHKE) [compound 289]	18	
290 (RVILQGRD[pS]NIPGSDYI) [compound 290]	13	
291 (AHAKASRT[pS]SKHKEDVY) [compound 291]	12	
292 (KKKLEVLQ[pS]QKGQESEY) [compound 292]	11	
293 (PSEPGGVL[pS]FLDQINQR) [compound 293]	9	
294 (HAKASRTS[pS]KHKEDVYE) [compound 294]	7	
295 (PWTFLVRE[pS]LSQPGDFV) [compound 295]	5	
296 (KNQGDFSL[pS]VRVGDQVT) [compound 296]	3	
297 (PLNCSDPT[pS]ERWYHGHM) [compound 297]	0	
298 (ADKEKSKG[pS]LKRK) [compound 298]	100	
299 (LKGRGVHG[pS]FLARPSRK) [compound 299]	54	
300 (HGSFLARP[pS]RKNQGDFS) [compound 300]	39	
ADKEKSKG-pS-LKRK---- (ADKEKSKG[pS]LKRK) [SEQ ID NO 298]		binding of pPKC antibody to phosphorylated peptide (pPKC antibody [2]): best binding
HGSFLARP-pS-RKNQGDFS (HGSFLARP[pS]RKNQGDFS) [SEQ ID NO 300]		binding of pPKC antibody to phosphorylated peptide (pPKC antibody [2]): distinctly lower but readily detectable binding
HVRRRRGTFKRSKLRARD [SEQ ID NO 1]		pPKC Ab binding to peptide (pPKC Ab): after phosphorylation but not before
LKGRGVHG-pS-FLARPSRK (LKGRGVHG[pS]FLARPSRK) [SEQ ID NO 299]		binding of pPKC antibody to phosphorylated peptide (pPKC antibody [2]): distinctly lower but readily detectable binding
LRRRSLRRSNSISKSPGP [SEQ ID NO 121]		pPKC Ab binding to peptide (pPKC Ab): after phosphorylation but not before

Source: patent US20050064507A1, “Determining kinase specificity” (priority 2003, published 2005)
